For data set [1], the target named is T1, PL Kallikrein (plasma kallikrein) (Homo sapiens, UniProt P03952).
T1 construct: purchased Kabi
Nature of the data set: Protease inhibitory activity assay, plasma kallikrein. The class given is biochemical. Particulars: 1 μM inhibitor; PL kallikrein 3 nM; H-D-Pro-Phe-Arg-pNA 0.6 mM; 25° C. The procedure: (§1) H--D--Pro--Phe--Arg--pNA
(§2) Abbreviations in Table 2: rec. refers to recombinant, GL kallikrein refer
(§3) to glandular kallikrein, and PL kallikrein refers to plasma kallikrein.
(§4) Inhibition assays were performed in microtiter wells in a total volume of 300 μl in 10 mM NaCl, 50 mM Tris-HCl (pH 7.4), 0.01% TWEEN80 (Polyoxyethylenesorbitan monoleate). The reactions were incubated at 25° C. for ten minutes after which the appropriate chromogenic substrate was added to the final concentration listed in Table 2 and the final reaction was incubated for thirty minutes at 25° C. Amidolytic activity was measured at 405 nm or by fluorescence Em at 460 nm.

A further data set has as its target T2, Plasmin (Homo sapiens, UniProt P00747).
T2 construct: Plasmin (10 nM); purchased Kabi
Nature of the data set: Protease inhibitory activity assay, plasmin. The conditions noted are these: 1 μM inhibitor; plasmin 10 nM; H-D-Val-Leu-Lys-pNA 0.6 mM; 25° C. The class given is biochemical. The procedure: H--D--Val--Leu--Lys--pNA
as §4

In data set [2] the test system is GL Kallikrein (glandular kallikrein). Nature of the data set: Protease inhibitory activity assay, glandular kallikrein. Type of data set: biochemical. Particulars: 1 μM inhibitor; GL kallikrein 1 U/ml; H-D-Val-Leu-Arg-pNA 0.6 mM; 25° C. The procedure:
H--D--Val--Leu--Arg--pNA
as §2, §3, §4

A further data set concerns Trypsin. Nature of the data set: Protease inhibitory activity assay, trypsin. Type of data set: biochemical. Particulars: 1 μM inhibitor; trypsin 8 nM; H-D-Val-Leu-Lys-pNA 0.6 mM; 25° C. The protocol: Trypsin (8 nM) H--D--Val--Leu--Lys--pNA
as §4

The subject of a further data set is Chymotrypsin. Kind of data set: Protease inhibitory activity assay, chymotrypsin. The class given is biochemical. The conditions noted are these: 1 μM inhibitor; chymotrypsin 2.5 nM; MeO-Suc-Arg-Pro-Tyr-pNA 0.6 mM; 25° C. The protocol: MeO--Suc--Arg--Pro--Tyr--pNA
as §4

A further data set deals with T3, Cathepsin G (Homo sapiens, UniProt P08311).
T3 construct: purified at Novo Nordisk A/S; tissue Novo Nordisk A/S (purified there); host or cells: leukocytes (by the cited method)
T3 sequence (P08311 21-255): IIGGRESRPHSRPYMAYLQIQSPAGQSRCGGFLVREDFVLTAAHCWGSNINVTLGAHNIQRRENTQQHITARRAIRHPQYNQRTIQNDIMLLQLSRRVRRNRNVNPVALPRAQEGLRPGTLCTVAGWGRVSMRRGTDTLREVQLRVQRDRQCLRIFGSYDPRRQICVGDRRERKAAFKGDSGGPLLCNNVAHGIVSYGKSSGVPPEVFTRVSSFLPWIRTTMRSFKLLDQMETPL
Nature of the data set: Protease inhibitory activity assay, cathepsin G. Type of data set: biochemical. Particulars: 1 μM inhibitor; Suc-Ala-Ala-Pro-Phe-pNA 0.6 mM; 25° C. The protocol:
Cathepsin G Suc--Ala--Ala--Pro--Phe--pNA
(§5) purified at Novo Nordisk A/S
(0.6 mM) (SEQ ID NO: 19)
as §4

Another data set concerns the target T4, Urokinase (Homo sapiens, UniProt P00749).
T4 construct: purchased Serono, Freigung, Germany
Nature of the data set: Protease inhibitory activity assay, urokinase. Particulars: 1 μM inhibitor; urokinase 5 nM; <Glu-Gly-Arg-pNA 0.6 mM; 25° C. Type of data set: biochemical. The protocol:
as §4

A further data set deals with T5, Leukocyte Elastase (Homo sapiens, UniProt P08246).
T5 construct: purified at Novo Nordisk A/S; tissue Novo Nordisk A/S (purified there); host or cells: leukocytes
T5 sequence (P08246 30-267): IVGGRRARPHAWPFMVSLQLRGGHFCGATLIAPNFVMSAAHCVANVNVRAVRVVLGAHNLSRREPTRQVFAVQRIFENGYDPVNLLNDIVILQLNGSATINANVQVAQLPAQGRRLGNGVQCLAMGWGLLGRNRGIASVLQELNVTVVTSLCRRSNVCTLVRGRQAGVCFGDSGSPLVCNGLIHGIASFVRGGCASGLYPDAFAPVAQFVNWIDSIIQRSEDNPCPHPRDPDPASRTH
Nature of the data set: Protease inhibitory activity assay, leukocyte elastase. Type of data set: biochemical. The conditions noted are these: 1 μM inhibitor; MeO-Suc-Ala-Ala-Pro-Val-pNA 0.6 mM; 25° C. The protocol:
MeO--Suc--Ala--Ala--Pro--Val--pNA
as §5, §4

For a further data set, the target named is T6, granulocyte elastase (Homo sapiens, UniProt P08246).
T6 sequence (P08246 30-267): T5 sequence (P08246 30-267)
The conditions noted are these: cited from earlier work.

Another data set deals with collagenase. The conditions noted are these: Wenzel and Tschesche 1981; cited from earlier work.
A further data set deals with plasma kallikrein (Homo sapiens, UniProt P03952). The conditions noted are these: WO 89/10374; cited from earlier work.
Sequence of plasma kallikrein (P03952 20-638, species assumed): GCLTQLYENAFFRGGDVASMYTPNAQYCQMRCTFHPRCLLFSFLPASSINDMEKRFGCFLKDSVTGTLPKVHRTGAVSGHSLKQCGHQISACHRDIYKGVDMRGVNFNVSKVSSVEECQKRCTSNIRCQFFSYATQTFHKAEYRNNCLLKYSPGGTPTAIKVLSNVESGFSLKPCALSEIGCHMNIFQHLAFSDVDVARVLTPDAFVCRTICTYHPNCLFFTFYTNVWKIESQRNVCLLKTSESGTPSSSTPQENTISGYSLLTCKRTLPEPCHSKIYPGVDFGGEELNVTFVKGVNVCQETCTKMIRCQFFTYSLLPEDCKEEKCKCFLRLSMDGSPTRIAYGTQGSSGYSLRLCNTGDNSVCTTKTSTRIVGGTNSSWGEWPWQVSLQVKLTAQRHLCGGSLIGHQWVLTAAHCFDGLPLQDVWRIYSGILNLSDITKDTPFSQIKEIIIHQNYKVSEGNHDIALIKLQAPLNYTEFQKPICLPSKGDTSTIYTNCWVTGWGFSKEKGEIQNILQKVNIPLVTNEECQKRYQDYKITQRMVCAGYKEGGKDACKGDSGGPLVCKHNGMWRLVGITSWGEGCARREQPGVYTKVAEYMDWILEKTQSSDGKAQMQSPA
The next data set concerns the target T7, human Factor XIIa (Homo sapiens, UniProt P00748).
T7 construct: human Factor XIIa (30 nM); purchased Dr. Walt Kisiel, University of New Mexico, Albuquerque, NM
T7 sequence (P00748 20-372 limits assumed): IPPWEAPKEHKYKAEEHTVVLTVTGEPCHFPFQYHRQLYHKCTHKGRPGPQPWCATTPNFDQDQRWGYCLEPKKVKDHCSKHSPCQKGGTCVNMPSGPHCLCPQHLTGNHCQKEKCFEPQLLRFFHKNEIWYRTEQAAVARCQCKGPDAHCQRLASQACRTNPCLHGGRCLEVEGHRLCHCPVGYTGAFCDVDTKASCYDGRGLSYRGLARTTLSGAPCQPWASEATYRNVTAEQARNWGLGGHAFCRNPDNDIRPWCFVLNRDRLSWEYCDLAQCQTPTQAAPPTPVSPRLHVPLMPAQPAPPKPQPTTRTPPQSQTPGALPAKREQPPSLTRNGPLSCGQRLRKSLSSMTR
T7 sequence (P00748 373-615 limits assumed): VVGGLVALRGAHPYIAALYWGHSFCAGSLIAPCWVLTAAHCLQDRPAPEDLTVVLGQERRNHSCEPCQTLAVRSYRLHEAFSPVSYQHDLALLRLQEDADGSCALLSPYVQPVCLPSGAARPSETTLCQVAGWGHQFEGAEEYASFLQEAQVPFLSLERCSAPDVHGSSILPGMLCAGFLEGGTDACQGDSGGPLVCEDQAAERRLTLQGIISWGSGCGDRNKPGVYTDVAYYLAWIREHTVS
Kind of data set: Protease inhibitory activity assay, Factor XIIa. The class given is biochemical. The conditions noted are these: 1 μM inhibitor; Factor XIIa 30 nM; H-D-Pro-Phe-Arg-pNA 0.6 mM; 25° C. The procedure: human Factor XIIa (30 nM)
as §1, §4

The target of a further data set is T8, human Factor XIa (Homo sapiens, UniProt P03951).
T8 construct: human Factor XIa (1 nM); purchased Dr. Kazuo Fujikawa, University of Washington, Seattle, WA
T8 sequence (P03951 19-387 limits assumed): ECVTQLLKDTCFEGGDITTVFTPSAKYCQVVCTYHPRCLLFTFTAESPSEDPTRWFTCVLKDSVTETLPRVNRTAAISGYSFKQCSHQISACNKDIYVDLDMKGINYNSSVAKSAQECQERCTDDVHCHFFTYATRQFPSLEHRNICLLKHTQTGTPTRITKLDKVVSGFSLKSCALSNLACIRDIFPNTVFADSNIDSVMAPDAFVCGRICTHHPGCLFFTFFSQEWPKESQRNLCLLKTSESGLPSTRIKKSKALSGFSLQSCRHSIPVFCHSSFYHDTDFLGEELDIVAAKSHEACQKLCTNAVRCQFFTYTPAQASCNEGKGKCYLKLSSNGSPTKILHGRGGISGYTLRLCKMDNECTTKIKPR
T8 sequence (P03951 388-625 limits assumed): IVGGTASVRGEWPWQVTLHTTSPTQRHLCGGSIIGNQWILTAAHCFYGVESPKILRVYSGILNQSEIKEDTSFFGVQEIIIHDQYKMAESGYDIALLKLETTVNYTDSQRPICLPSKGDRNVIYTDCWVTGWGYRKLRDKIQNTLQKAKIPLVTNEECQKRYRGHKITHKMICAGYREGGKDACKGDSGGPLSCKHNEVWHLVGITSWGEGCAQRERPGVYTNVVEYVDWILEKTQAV
Nature of the data set: Protease inhibitory activity assay, Factor XIa. Type of data set: biochemical. Particulars: 1 μM inhibitor; Factor XIa 1 nM; Boc-Glu(OBzl)-Ala-Arg-MCA 0.12 mM; 25° C. The procedure: Boc--Glu(OBzl)--Ala--Arg--MCA
as §4

The target in data set [3] is T9, rec. Protein Ca (activated protein C) (Homo sapiens, UniProt P04070).
T9 construct: purchased Novo Nordisk A/S
T9 sequence (P04070 43-197 limits assumed): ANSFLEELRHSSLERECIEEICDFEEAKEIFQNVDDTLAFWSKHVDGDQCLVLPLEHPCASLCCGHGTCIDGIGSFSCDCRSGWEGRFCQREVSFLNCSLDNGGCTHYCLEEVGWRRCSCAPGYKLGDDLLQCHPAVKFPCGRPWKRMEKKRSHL
T9 sequence (P04070 212-461 limits assumed): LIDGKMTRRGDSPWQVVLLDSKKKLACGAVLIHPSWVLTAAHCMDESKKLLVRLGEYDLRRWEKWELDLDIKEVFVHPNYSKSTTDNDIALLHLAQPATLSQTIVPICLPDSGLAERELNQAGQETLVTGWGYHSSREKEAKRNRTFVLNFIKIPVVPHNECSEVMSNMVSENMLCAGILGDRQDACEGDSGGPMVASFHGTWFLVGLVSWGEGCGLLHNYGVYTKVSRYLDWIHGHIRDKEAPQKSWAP
Kind of data set: Protease inhibitory activity assay, activated protein C. Type of data set: biochemical. The conditions noted are these: 1 μM inhibitor; rec. Protein Ca 5 nM; <Glu-Pro-Arg-pNA 0.6 mM; 25° C. The protocol: as §4
r.h. refers to recombinant human, h. refers to human, protein Ca refers t
activated protein C; APPH refers to the KunitzType inhibitor domain of […]

The conditions of data set [4]: high doses; cardiac surgery including cardiopulmonary bypass operations; cited from earlier work.
In the next data set the target is T10, rec. human Factor VIIa (Homo sapiens, UniProt P08709).
T10 construct: rec. human Factor VIIa; purchased Novo Nordisk A/S
T10 sequence (P08709 61-212 limits assumed): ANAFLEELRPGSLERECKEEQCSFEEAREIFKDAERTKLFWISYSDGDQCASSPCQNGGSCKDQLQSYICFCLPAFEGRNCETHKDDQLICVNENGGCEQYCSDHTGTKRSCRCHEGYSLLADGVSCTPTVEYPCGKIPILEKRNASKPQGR
T10 sequence (P08709 213-466 limits assumed): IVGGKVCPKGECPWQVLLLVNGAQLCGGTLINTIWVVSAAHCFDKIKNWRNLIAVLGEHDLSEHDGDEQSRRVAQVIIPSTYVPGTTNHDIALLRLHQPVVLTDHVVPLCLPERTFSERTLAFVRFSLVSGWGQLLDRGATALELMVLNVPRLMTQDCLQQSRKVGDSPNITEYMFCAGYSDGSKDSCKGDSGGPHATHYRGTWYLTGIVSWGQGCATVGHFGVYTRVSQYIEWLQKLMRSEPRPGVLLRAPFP
Kind of data set: Protease inhibitory activity assay, Factor VIIa. The class given is biochemical. The conditions noted are these: 1 μM inhibitor; Factor VIIa 300 nM; H-D-Ile-Pro-Arg-pNA 0.6 mM; 25° C. The procedure: H--D--Ile--Pro--Arg--pNA
as §4

The target of the next data set is T11, human Factor Xa (Homo sapiens, UniProt P00742).
T11 construct: human Factor Xa (3 nM); purchased Dr. I. Schousboe, Copenhagen, Denmark
T11 sequence (P00742 41-179 limits assumed): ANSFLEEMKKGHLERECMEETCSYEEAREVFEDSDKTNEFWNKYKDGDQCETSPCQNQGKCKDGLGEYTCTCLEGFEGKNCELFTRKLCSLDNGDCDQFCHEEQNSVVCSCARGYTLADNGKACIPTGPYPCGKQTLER
T11 sequence (P00742 235-488 limits assumed): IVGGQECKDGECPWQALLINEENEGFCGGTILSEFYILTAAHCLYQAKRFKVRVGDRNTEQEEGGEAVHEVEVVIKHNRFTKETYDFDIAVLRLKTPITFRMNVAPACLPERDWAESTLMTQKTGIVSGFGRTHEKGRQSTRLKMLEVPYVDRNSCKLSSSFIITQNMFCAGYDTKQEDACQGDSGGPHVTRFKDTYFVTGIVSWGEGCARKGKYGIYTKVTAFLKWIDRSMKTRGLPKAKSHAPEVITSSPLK
Kind of data set: Protease inhibitory activity assay, Factor Xa. The class given is biochemical. Particulars: 1 μM inhibitor; Factor Xa 3 nM; MeO-CO-CHA-Gly-Arg-pNA 0.3 mM; 25° C. The protocol:
The reactions were incubated at 25° C. for ten minutes after which the appropriate chromogenic substrate was added to the final concentration listed in Table 2 and the final reaction was incubated for thirty minutes at 25° C. Amidolytic activity was measured at 405 nm or by fluorescence Em at 460 nm.

The subject of a further data set is kidneys. The conditions noted are these: in vivo, repeated injections of relatively high doses; rats, rabbits and dogs; cited from earlier work.

T2 sequence (P00747 97-580 limits assumed): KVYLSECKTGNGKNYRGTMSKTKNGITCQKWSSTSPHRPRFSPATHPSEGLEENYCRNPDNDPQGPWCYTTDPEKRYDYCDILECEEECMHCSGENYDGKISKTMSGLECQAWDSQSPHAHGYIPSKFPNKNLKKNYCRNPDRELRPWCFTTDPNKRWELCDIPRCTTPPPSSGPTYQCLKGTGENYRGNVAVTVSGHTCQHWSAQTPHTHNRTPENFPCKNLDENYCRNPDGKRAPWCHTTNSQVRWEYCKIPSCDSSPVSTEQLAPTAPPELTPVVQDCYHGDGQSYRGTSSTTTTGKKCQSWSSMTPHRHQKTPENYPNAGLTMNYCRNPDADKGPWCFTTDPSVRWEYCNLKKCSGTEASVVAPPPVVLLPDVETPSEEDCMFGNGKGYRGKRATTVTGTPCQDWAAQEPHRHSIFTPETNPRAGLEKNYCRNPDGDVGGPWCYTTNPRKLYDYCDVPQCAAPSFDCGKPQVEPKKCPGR
T2 sequence (P00747 581-810 limits assumed): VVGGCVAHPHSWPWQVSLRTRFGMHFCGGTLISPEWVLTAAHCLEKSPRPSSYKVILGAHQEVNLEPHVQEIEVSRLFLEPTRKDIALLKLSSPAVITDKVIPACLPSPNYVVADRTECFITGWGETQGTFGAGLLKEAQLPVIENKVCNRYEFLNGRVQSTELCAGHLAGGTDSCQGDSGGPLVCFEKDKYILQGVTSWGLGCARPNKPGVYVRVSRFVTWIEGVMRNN
T1 sequence (P03952 20-390 limits assumed): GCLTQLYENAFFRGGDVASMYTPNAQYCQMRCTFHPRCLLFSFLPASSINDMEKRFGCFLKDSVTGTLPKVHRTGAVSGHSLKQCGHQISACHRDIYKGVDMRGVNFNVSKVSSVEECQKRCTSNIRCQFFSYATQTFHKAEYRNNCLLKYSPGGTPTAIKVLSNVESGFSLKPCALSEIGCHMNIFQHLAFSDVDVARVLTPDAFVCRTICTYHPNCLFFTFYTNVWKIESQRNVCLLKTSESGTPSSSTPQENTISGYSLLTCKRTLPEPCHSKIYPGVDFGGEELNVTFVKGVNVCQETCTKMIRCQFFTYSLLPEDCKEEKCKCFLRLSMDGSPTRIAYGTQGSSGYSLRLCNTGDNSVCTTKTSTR
T1 sequence (P03952 391-638 limits assumed): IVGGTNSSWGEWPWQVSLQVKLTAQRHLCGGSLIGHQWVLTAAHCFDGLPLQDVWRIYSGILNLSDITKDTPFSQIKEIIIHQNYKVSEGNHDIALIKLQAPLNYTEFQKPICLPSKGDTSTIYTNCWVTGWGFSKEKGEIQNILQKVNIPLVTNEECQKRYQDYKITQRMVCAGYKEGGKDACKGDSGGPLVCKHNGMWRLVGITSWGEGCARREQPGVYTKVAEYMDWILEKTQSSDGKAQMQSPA

With “APP: amyloid protein precursor Kunitz-type inhibitor domain (Example 2E, SEQ ID NO:17), expressed in yeast (EVCSEQAETGPCRAMISRWYFDVTEGKCAPFFYGGCGGNRNNFDTEEYCMAVCGSA)”, the “% Inhibition, PL Kallikrein” value in data set [1] was 71%. Also, in the data set with Plasmin, the “% Inhibition, Plasmin” value worked out at 90%. For the same substance, in data set [2], the “% Inhibition, GI Kallikrein” value was 82%. Moreover, in the data set with Trypsin, the “% Inhibition, Trypsin” value was 99.7%. In addition, in the data set on Chymotrypsin, the “% Inhibition, Chymotrypsin” value is 94%. In the data set with Cathepsin G, the “% Inhibition, Cathepsin G” value turned out to be 16%. Also, the “% Inhibition, Urokinase” value with Urokinase worked out at 0%. Further, the “% Inhibition, Leukocyte Elastase” value with Leukocyte Elastase was determined as 6%.
Turning to Aprotinin (1-58, Ala15), the effect on elastase entry at granulocyte elastase (literature) is reported as “weak effect”.
Regarding aprotinin (1-58, Val15), the “selectivity for granulocyte elastase” value on granulocyte elastase (Wenzel and Tschesche 1981) is recorded as “relatively high selectivity”. The “inhibitory effect on collagenase” value with collagenase is reported as “inhibitory effect”.
On to aprotinin (3-58, Arg15, Ala17, Ser42), for which the “plasma kallikrein inhibitory effect” value at plasma kallikrein was “excellent”.
In the case of aprotinin [BPTI], on human Factor XIIa, the “% Inhibition, h. Factor XIIa” value worked out at 2%. Besides, the “% Inhibition, PL Kallikrein” value in data set [1] turned out to be 83%. Also, at human Factor XIa, the “% Inhibition, h. Factor XIa” value amounted to 59%. In addition, the “% Inhibition, r.h. Protein Ca” value in data set [3] is on record as 38%. In data set [4], the “blood loss in connection with cardiac surgery” value is “significantly reduces blood loss”. Further, the “% Inhibition, Plasmin” value at Plasmin is 100%. Further, the “% Inhibition, r.h. Factor VIIa” value on rec. human Factor VIIa is on record as 1%. On human Factor Xa, the “% Inhibition, h. Factor Xa” value is on record as 1%. The “% Inhibition, Trypsin” value in the data set with Trypsin is given as 100%. Besides, the nephrotoxic effect entry in the data set with kidneys was “nephrotoxic effect”. Further, the “% Inhibition, Cathepsin G” value at Cathepsin G is listed as 4%. Besides, the “% Inhibition, Urokinase” value at Urokinase came out at 1%. Besides, at Leukocyte Elastase, the “% Inhibition, Leukocyte Elastase” value came to 1%.
